Reference: patent US20100279976A1, “USE OF ARTEMISININ AND ITS DERIVATIVES IN CANCER THERAPY” (SHANGHAI INSTITUTES FOR BIOLOGICAL SCIENCES, CAS, priority 2009, published 2010)

Columns and labels:
[1] = system: Hep3B hepatoma cells (p53 null); assay: MTT cell viability assay, Hep3B; type: cell-based; details: Homo sapiens, 48 h
Procedure: The effects of ART derivatives on the viability of the aforementioned cells may be determined using the MTT assay. Briefly, 2,000 cells per well were plated in triplicate in 96-well plates. After a 24-h incubation, the cells may be treated with varying concentrations of ART derivatives (0, 1, 5, 10, 25, 50, and 100 μmol/L) for 48 h. The MTT assay may be performed according to the manufacture's instruction and the resultant formazan crystals may be dissolved in DMSO (100 μL). The absorbance may be then recorded at 540 nm. The effects of ART derivatives on cell viability may be assessed by comparing the percent cell viability of the treated cells with the vehicle (DMSO)-treated control cells, which may be arbitrarily assigned at 100% viability. The experiment may be repeated thrice under the same conditions.

[2] = system: HepG2 cells; assay: Cell cycle analysis (propidium iodide, flow cytometry), HepG2; type: cell-based, human
Procedure: Cells (2×10^5) may be treated with ART and DHA (0, 1, 10, 25, and 50 μmol/L) as described above for 48 h. The harvested cells may be re-suspended in 200 μL of cold PBS, to which cold ethanol (600 μl) may be added, and the mixture may then be incubated for 2 h at 4° C. After centrifugation, the pellet may be washed with cold PBS, suspended in 500 μL PBS, and incubated with 50 μL RNase (20 μg/mL final concentration) for 30 min. The cells may be incubated with propidium iodide (50 μg/mL final concentration) for 30 min in the dark. The cell cycle distribution may be determined using a FACSAria instrument (BD Biosciences). The experiment may be repeated thrice under the same conditions.

[3] = system: Hep3B cells; assay: Annexin V-FITC apoptosis assay, Hep3B; type: cell-based, human
Procedure: (§1) ART- and DHA-induced apoptosis alone or in combination with gemcitabine in HepG2 and Hep3B cells or in combination with carboplatin in ovarian cancer cells may be determined by flow cytometry using the Annexin V-FITC Apoptosis Detection kit following the manufacturer's instructions. Briefly, 2×10^5 cells may be treated with ART and DHA (0, 1, 10, 25, and 50 mol/L) or 10 μg/L gemcitabine for 48 h. The cells may then be harvested, washed in PBS, and incubated with Annexin V and propidium iodide for staining in binding buffer at room temperature for 10 min in the dark. The stained cells may be analyzed using the FACSAria instrument.

[4] = system: Hep3B xenograft tumors; assay: Hep3B xenograft model in nude mice; type: in vivo
Procedure: Female athymic nude mice (nu/nu; 4-6 wk of age) may be obtained from Shanghai Slac Laboratory Animal Co. Ltd. All animals may be fed with commercial diet and water ad libitum. The human HCC xenograft models in mice may be as follows. Briefly, HepG2 and Hep3B cells may be re-suspended in serum-free DMEM with Matrigel basement membrane matrix at a 5:1 ratio. The cell suspension may then be injected (7×10^6 cells; total volume, 0.2 mL) into the left inguinal area of the BALB/c nude mice. The animals may be monitored for activity and physical condition everyday, and the determination of body weight and measurement of tumor mass may be done every 3 d. Tumor mass may be determined by caliper measurement in two perpendicular diameters of the implant and calculated using the formula ½a×b^2, where a stands for the long diameter and b is the short diameter. The animal use and care protocol is approved by the Institutional Review Board of the Institute for Nutritional Sciences, Chinese Academy of Sciences.
Nude mice bearing HepG2 and Hep3B xenografts, randomly divided into various treatment and control groups (five mice per group), may be treated orally with either ART or DHA suspended in 5% sesame oil+95% saline, at a dose of 50 or 100 mg/kg/d, or a combination of ART or DHA with gemcitabine or with saline (as controls). In the mice receiving combination therapy, 80 mg/kg gemcitabine, representing one fifth of the reported most tolerated dose in mice, may be administered i.p. on days 7, 11, and 15 to avoid possible side effects and to illustrate potential chemo-sensitization effects in this combination regimen.

[5] = system: A2780 cells; assay: Annexin V-FITC apoptosis assay, A2780; type: cell-based, human; details: A2780, 50 μM, 24 hrs
Procedure: as §1, with “Briefly, 2×10^5 cells may be treated with ART and DHA (0, 1, 10, 25, and 50 mol/L) or 10 μg/L gemcitabine for 48 h.” left out

[6] = system: OVCAR-3 cells; assay: Annexin V-FITC apoptosis assay, OVCAR-3; type: cell-based, human; details: for increase in apoptosis versus control: 24 hrs
Procedure: as §1, with “Briefly, 2×10^5 cells may be treated with ART and DHA (0, 1, 10, 25, and 50 mol/L) or 10 μg/L gemcitabine for 48 h.” left out

[7] = system: OVCAR-3 xenograft tumors; assay: OVCAR-3 xenograft model in nude mice; type: in vivo; details: 5 days/week
Procedure: Four to six week old female athymic nude mice (BALB/c, nu/nu) may be purchased from Shanghai Experimental Animal Center (Shanghai, China). Animal studies are approved by the Institute for Nutritional Sciences. The tumor xenograft model may be established as follows. Briefly, A2780 and OVCAR-3 cells may be harvested and re-suspended in serum-free RPMI 1640 medium containing 20% (v/v) Matrigel (BD Biosciences, Bedford, Mass., USA). Aliquots of cells (˜5×10^6 cells/0.2 ml) may be injected subcutaneously into the left inguinal area of the mice. The tumor growth and body weight of the mice may be monitored every other day. Tumor mass may be determined. Mice bearing palpable tumors (˜70 mg) may be randomly divided into treatment and control groups n=5 mice/group). CBP may be dissolved in saline, and DHA may be dissolved in cremophor EL:ethanol:saline (5:5:90, v/v/v). DHA may be administered via i.p. injection at doses of 10 and 25 mg/kg/5 days/week for 3 weeks) alone or combined with CBP (at a single dose of 120 mg/kg, once on day 0). The control group receives saline only. Mice may be killed on day 18. Tumors may be carefully excised, trimmed of extraneous fat or connective tissue, and homogenized in RIPA buffer (100 mg tumor tissue/1 ml RIPA) and prepared for immunoblotting analysis as described above.

[8] = HepG2, 10 μmol/L, 48 h (control 63.05%)
[9] = 1 μmol/L, 48 h (0 μmol/L: 0.8%)

Question: With `C[C@@H]1CC[C@H]2[C@@H](C)C(=O)O[C@@H]3O[C@@]4(C)CC[C@@H]1[C@]32OO4` [ART, artemisinin] as the compound, how does the IC20 [1] read?
Answer: 0.97 µM

Question: And the IC50 [1]?
Answer: 10.4 µM

Question: And the IC80 [1]?
Answer: 113 µM

Question: What about the “cells in the G1 phase” value [2, 8] of the same compound?
Answer: 67.41%

Question: And the “cells in the G1 phase” value ([2]; HepG2, 25 μmol/L, 48 h)?
Answer: 70.72%

Question: And the “cells in the G1 phase” value ([2]; HepG2, 50 μmol/L, 48 h)?
Answer: 69.21%

Question: And the apoptotic cells [3, 9]?
Answer: 2.25%

Question: What about the apoptotic cells ([3]; 10 μmol/L, 48 h) of the same compound?
Answer: 2.65%

Question: What about the apoptotic cells ([3]; 25 μmol/L, 48 h) of the same compound?
Answer: 4.8%

Question: And the apoptotic cells ([3]; 50 μmol/L, 48 h)?
Answer: 25.3%

Question: And the “effect on tumor growth” value ([4]; Hep3B xenograft, oral 50 and 100 mg/kg/d, alone)?
Answer: slight inhibitory effect on tumor growth

Question: What about the “toxic effects (body weight)” value ([4]; mouse, in vivo) of the same compound?
Answer: Neither compound causes any observable toxic effects

Question: How did the IC20 [1] turn out when `C[C@H]1[C@@H](O)O[C@@H]2O[C@@]3(C)CC[C@H]4[C@H](C)CC[C@@H]1[C@@]24OO3` [DHA, dihydroartemisinin] was run?
Answer: 0.96 µM

Question: What about the IC50 [1] of the same compound?
Answer: 10.3 µM

Question: What about the IC80 [1] of the same compound?
Answer: 111 µM

Question: And the “cells in the G1 phase” value [2, 8]?
Answer: 69.36%

Question: And the “cells in the G1 phase” value ([2]; HepG2, 25 μmol/L, 48 h)?
Answer: 70.91%

Question: And the “cells in the G1 phase” value ([2]; HepG2, 50 μmol/L, 48 h)?
Answer: 72.03%

Question: And the apoptotic cells [3, 9]?
Answer: 2.15%

Question: What about the apoptotic cells ([3]; 10 μmol/L, 48 h) of the same compound?
Answer: 12.9%

Question: And the apoptotic cells ([3]; 25 μmol/L, 48 h)?
Answer: 28.75%

Question: What about the apoptotic cells ([3]; 50 μmol/L, 48 h) of the same compound?
Answer: 31.05%

Question: And the “toxic effects (body weight)” value ([4]; Hep3B xenograft mice)?
Answer: Neither compound causes any observable toxic effects

Question: What about the “increase in apoptosis versus control” value [5] of the same compound?
Answer: 17 fold

Question: And the “increase in apoptosis versus control” value ([6]; OVCAR-3, 25 μM)?
Answer: 18 fold

Question: What about the “increase in apoptosis versus control” value ([6]; OVCAR-3, 50 μM) of the same compound?
Answer: 22 fold

Question: What about the “rate of apoptosis (control regarded as 100%)” value ([6]; OVCAR-3, 24 hrs, DHA 1 μM, CBP 500 μM, alone or combined) of the same compound?
Answer: 266%

Question: And the tumor growth inhibition ([7]; DHA 10 mg/kg i.p.)?
Answer: 14%

Question: What about the tumor growth inhibition ([7]; DHA 25 mg/kg i.p.) of the same compound?
Answer: 37%
